Data from PubChem BioAssay AID1949 (Southern Research Institute, 2009).
≈ marks a conversion by molar mass, not a printed value. Inconclusive results are not listed. Calls of active or inactive are those of the source. The rule behind the calls is not given here.

test system: M. tuberculosis H37Rv growth inhibition; test: Mycobacterium tuberculosis H37Rv growth inhibition, cell based, confirmatory dose response (AID 1949);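 note: bacteria grown 7 days with compound before Alamar blue readout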

SMILES	IC50
CCN(CC)c1ccc(NC(=S)NCc2ccc(Cl)cc2)cc1	3.18 µg/mL (≈ 9.14 µM)
CN1CCN(c2ccc(NC(=O)c3ccc(-c4ccc(Cl)cc4)o3)cc2)CC1	38 µg/mL (≈ 96 µM)
O=C(Nc1ccc2oc(-c3cccc4ccccc34)nc2c1)c1cncc(Br)c1	2.72 µg/mL (≈ 6.12 µM)
CN(C)c1ccc(Nc2ncnc3ccc(Br)cc23)cc1	1.08 µg/mL (≈ 3.15 µM)
O=C(NC1CCCCC1)c1cccc(N2C(=O)c3cccc4c([N+](=O)[O-])ccc(c34)C2=O)c1	0.39 µg/mL (≈ 0.879 µM)
CCC(C)c1ccccc1OCC(=O)Nc1ccc(Cl)cc1 (stereo unspecified)	4.68 µg/mL (≈ 14.7 µM)
Cc1nc2c(-c3ccccc3)c[nH]n2c(=O)c1Cc1ccccc1	> 50 µg/mL (inactive)
O=S1(=O)C=CC2ON=C(c3c(Cl)cccc3Cl)C21 (stereo unspecified)	10.8 µg/mL (≈ 35.6 µM)
Cc1cc(C(C)(C)C)ccc1OCCOCCn1ccnc1	2.93 µg/mL (≈ 9.69 µM)
C#CCSc1nnc(-c2ccc(Br)cc2)o1	0.94 µg/mL (≈ 3.18 µM)
CCOc1cc(CNC23CC4CC(CC(C4)C2)C3)ccc1OCc1cccs1	0.82 µg/mL (≈ 2.06 µM)
Cc1ccc(-c2nc3ccc(Br)cc3c(=O)o2)cc1C	> 50 µg/mL (inactive)
COC(=O)c1sc(NC(=O)c2c(F)c(F)c(F)c(F)c2F)c(C(N)=O)c1C	< 0.1 µg/mL
N#Cc1c(NC(=S)NC(=O)C2CCCC2)sc2c1CCCC2	28.4 µg/mL (≈ 85.2 µM)
CC(=O)N1CCN(c2ccc(NC(=S)NC(=O)c3cc4ccccc4o3)cc2)CC1	2.74 µg/mL (≈ 6.49 µM)
Cc1ccc2nc(SCc3ccc4ccccc4c3)[nH]c2c1	11 µg/mL (≈ 36 µM)
CC(C)(C)c1cc(Cl)c(O)c(NC(=S)NC(=O)c2ccc(Cl)cc2)c1	< 0.1 µg/mL
CCc1cccc(NC(=O)c2ccc3ccccc3n2)c1	11.4 µg/mL (≈ 41.1 µM)
CCCn1nnnc1NC(=O)c1cccs1	1.67 µg/mL (≈ 7.04 µM)
Cc1oc2ccc(OCC(=O)OCc3ccccc3)cc2c1C(=O)OC(C)C	9.08 µg/mL (≈ 23.7 µM)
c1ccc(CNc2cc(-n3cccn3)nc(-c3ccccc3)n2)cc1	> 50 µg/mL (inactive)
O=C(COc1ccc2c(-c3ccccc3)cc(=O)oc2c1)OC1CCCCC1	< 0.1 µg/mL
O=C(/C=C/c1cccs1)N1CCN(Cc2ccc3c(c2)OCO3)CC1	< 0.1 µg/mL
COC(=O)c1cccc(NC(=O)COc2ccc(C(C)(C)C)cc2)c1	> 50 µg/mL (inactive)

SMILES	IC50
COc1ccc(Cc2nc3sc4c(c3c(=O)n2N)CCCC4)cc1	> 50 µg/mL (inactive)
CC(C)(C)NCCCCOc1ccc(Cl)cc1C(C)(C)C	3.77 µg/mL (≈ 12.1 µM)
CCOC(=O)c1ccccc1OC(=O)c1c(F)c(F)c(F)c(F)c1F	9.77 µg/mL (≈ 27.1 µM)
O=C(CCc1nc(-c2ccc(Cl)cc2)no1)OCc1ccc(Br)cc1	> 50 µg/mL (inactive)
CC(C)(C)c1ccc(C(=O)Nc2ccc(NC(=S)NC(=O)c3cccs3)cc2)cc1	0.46 µg/mL (≈ 1.05 µM)
COC(=O)c1ccc(OCC(=O)Nc2ccccc2F)cc1	0.55 µg/mL (≈ 1.81 µM)
Cc1ccc(Cl)cc1N1CCN(CC(O)COCC2COc3ccccc3O2)CC1 (stereo unspecified)	5.17 µg/mL (≈ 11.9 µM)
Cc1cnc(NC(=O)CSc2ccc(Cl)cc2)s1	1.67 µg/mL (≈ 5.59 µM)
Cc1ccc2nc(-c3ccncc3)cc(C(=O)Nc3ccc(C(=O)N4CCCC4)cc3)c2c1	8.89 µg/mL (≈ 20.4 µM)
O=C(C#Cc1ccccc1)c1ccc([N+](=O)[O-])cc1	> 50 µg/mL (inactive)
O=S1(=O)C=C(Sc2nc3ccccc3s2)c2ccccc21	< 0.1 µg/mL
O=C(Nc1cccc(C(F)(F)F)c1)N1CCN(c2cccc(C(F)(F)F)c2)CC1	5.09 µg/mL (≈ 12.2 µM)
O=[N+]([O-])c1cc(CN2CCN(c3ccccc3)CC2)c(O)c2ncccc12	6.09 µg/mL (≈ 16.7 µM)
CCOc1ccc(S(=O)(=O)Nc2ccc(C(F)(F)F)cc2)cc1	6.25 µg/mL (≈ 18.1 µM)
O=C(CC1(O)C(=O)N(CCc2ccccc2)c2ccc(Cl)cc21)c1ccncc1 (stereo unspecified)	6.03 µg/mL (≈ 14.8 µM)
O=C(COc1ccc2ccccc2c1)c1ccc(Cl)cc1	16.5 µg/mL (≈ 55.4 µM)
CCOc1ccc2nc3cc(N)ccc3c(N)c2c1	0.81 µg/mL (≈ 3.2 µM)
Cn1c(=O)c([N+](=O)[O-])c(Nc2cccc(C(F)(F)F)c2)c2ccccc21	15.4 µg/mL (≈ 42.3 µM)
C=CCc1cc(C)ccc1OCCCCn1ccnc1	1.45 µg/mL (≈ 5.36 µM)
CC(=O)c1ccc(COC(=O)c2ccc([N+](=O)[O-])cc2Cl)cc1	40.7 µg/mL (≈ 122 µM)
Cc1ccccc1OC(=O)c1sc2ccccc2c1Cl	2.05 µg/mL (≈ 6.77 µM)
CCOc1ccc(Nc2nc(NCc3ccco3)c3ccccc3n2)cc1	1.36 µg/mL (≈ 3.77 µM)
CCn1c(/C=C/c2ccc([N+](=O)[O-])o2)nc2ccc(I)cc2c1=O	2.04 µg/mL (≈ 4.67 µM)
O=S1(=O)C=CC2ON=C(c3ccc(C(F)(F)F)cc3)C21 (stereo unspecified)	3.08 µg/mL (≈ 10.2 µM)

SMILES	IC50
Cc1ccc(S(=O)(=O)Nc2ccc(NC(=O)Nc3cccc(C(F)(F)F)c3)cc2)cc1	1.13 µg/mL (≈ 2.51 µM)
CCOC(=O)c1c(-c2ccccc2)oc2ccc(OC(=O)c3cccs3)cc12	> 50 µg/mL (inactive)
COc1ccc(OCCC(=O)Nc2nc(C3CCCCC3)cs2)cc1	25.5 µg/mL (≈ 70.8 µM)
FC(F)(F)c1ccccc1Nc1nc(-c2ccccn2)cs1	< 0.1 µg/mL
O=C(Nc1cccc2cccnc12)c1ccc([N+](=O)[O-])o1	8.91 µg/mL (≈ 31.5 µM)
CC(Oc1ccc(C(C)(C)C)cc1)c1nc(-c2ccncc2)no1 (stereo unspecified)	22.8 µg/mL (≈ 70.6 µM)
CCN(CC)C(=S)NC(=O)c1ccc(Cl)cc1	1.43 µg/mL (≈ 5.28 µM)
O=C(Nc1ccc(Br)c(C(F)(F)F)c1)c1ccccc1	3.26 µg/mL (≈ 9.47 µM)
COc1cc2ccccc2cc1C(=O)NCCC12CC3CC(CC(C3)C1)C2	3.27 µg/mL (≈ 9 µM)
O=C(CCNc1ccc(F)c(Cl)c1)c1cccs1	4.3 µg/mL (≈ 15.2 µM)
CCn1cc(C(=O)O)c(=O)c2cc(F)c(N3CCN(C(=S)Nc4ccc(Cl)cc4)CC3)cc21	24.1 µg/mL (≈ 49.3 µM)
Cc1cc(C(=O)Oc2ccccc2)ccc1[N+](=O)[O-]	1.87 µg/mL (≈ 7.27 µM)
O=C(NCc1ccc(Cl)c(Cl)c1)C(Cl)Cl	10.6 µg/mL (≈ 37.1 µM)
Cn1nc([N+](=O)[O-])nc1Sc1nnc(-c2cccnc2)o1	2.49 µg/mL (≈ 8.16 µM)
C#CCSc1nnc(-c2ccc([N+](=O)[O-])cc2)o1	< 0.1 µg/mL
Clc1ccc(OCCCNCc2ccccc2)c2ccccc12	1.36 µg/mL (≈ 4.17 µM)
COC(=O)COc1ccc(S(=O)(=O)Nc2cccc(Cl)c2C)cc1	9.72 µg/mL (≈ 26.3 µM)
CC(Nc1nc(N2CCN(C(=O)c3ccc(Cl)cc3)CC2)nc2ccccc12)c1ccccc1 (stereo unspecified)	2.7 µg/mL (≈ 5.72 µM)
Cc1cc(C)nc(/N=C(/N)Nc2ccc(OCc3ccccc3)cc2)n1	4.64 µg/mL (≈ 13.4 µM)
C/C(Cl)=C/Cc1c(C)[nH]c2ccccc2c1=O	16.6 µg/mL (≈ 67.2 µM)
O=c1oc(-c2ccccc2)cc(Cl)c1Cl	2.04 µg/mL (≈ 8.46 µM)
CC(C)(C)c1ccc(-c2nn3c(Cc4ccccc4)nnc3s2)cc1	> 50 µg/mL (inactive)
CCc1ccc(OCC(=O)Nc2ccc(N3CCN(C(=O)c4cccs4)CC3)c(Cl)c2)cc1	2.95 µg/mL (≈ 6.09 µM)
CC(C)(C)c1ccc(C(=O)NC(=S)NCc2ccco2)cc1	2.16 µg/mL (≈ 6.83 µM)

SMILES	IC50
COc1ccc(-c2cc(C(F)F)n3ncc(C(=O)N4CCN(c5ccccc5)CC4)c3n2)cc1	> 50 µg/mL (inactive)
Clc1ccc(OCCn2ccnc2)c2ccccc12	3.99 µg/mL (≈ 14.6 µM)
S=C(NCc1ccc(Cl)cc1)NCc1ccc(-n2cccn2)cc1	5.4 µg/mL (≈ 15.1 µM)
Cc1cccc(Nc2nc(-c3ccccn3)cs2)n1	< 0.1 µg/mL
COc1cccc2c(C)nc(Nc3nc4ccccc4c(=O)[nH]3)nc12	> 50 µg/mL (inactive)
COc1ccc(C(=O)/C=C/Nc2cc(Cl)ccc2O)cc1OC	4.6 µg/mL (≈ 13.8 µM)
O=C1C(Cl)=C(N2CCOCC2)C(=O)N1c1cccc(Cl)c1Cl	20.9 µg/mL (≈ 57.7 µM)
COc1ccc(OC(=O)c2sc3ccccc3c2Cl)cc1	> 50 µg/mL (inactive)
Cc1ccc(OCC(O)CN2CCN(CC(O)COc3ccc(C)cc3C)CC2)c(C)c1 (stereo unspecified)	3.27 µg/mL (≈ 7.39 µM)
Cc1ccc(NC(=O)CC2COc3ccccc3O2)cc1Cl (stereo unspecified)	1.56 µg/mL (≈ 4.91 µM)
CCc1cc2c(=O)c(-c3ccc4c(c3)OCCCO4)coc2cc1OC(C)C(=O)OC (stereo unspecified)	39.9 µg/mL (≈ 94.1 µM)
c1ccc2c(NCCc3c[nH]c4ccccc34)c3ccccc3nc2c1	1.51 µg/mL (≈ 4.48 µM)
COc1ccc(Cl)cc1/C=C/[N+](=O)[O-]	5.64 µg/mL (≈ 26.4 µM)
CCN(CC)CC(O)Cn1c(C)c(-c2ccccc2)c2cc([N+](=O)[O-])ccc21 (stereo unspecified)	29.4 µg/mL (≈ 77 µM)
Clc1ccc(-c2csc(-c3cccnc3)n2)cc1	5.82 µg/mL (≈ 21.3 µM)
O=C(Nc1nnc(-c2ccccc2Cl)o1)c1ccco1	1.83 µg/mL (≈ 6.32 µM)
O=C1CC(c2ccc(Cl)cc2)CC2=C1C(c1ccc(C(F)(F)F)cc1)Nc1ccccc1N2 (stereo unspecified)	2.14 µg/mL (≈ 4.56 µM)
N#Cc1c(SCC(=O)OCc2ccccc2)nsc1SCC(=O)OCc1ccccc1	8.73 µg/mL (≈ 18.6 µM)
CC1CCN(CCNC(=S)Nc2ccc(F)cc2)CC1	1.54 µg/mL (≈ 5.21 µM)
O=C(Oc1c(Cl)cc(Cl)c2cccnc12)c1ccccc1[N+](=O)[O-]	0.2 µg/mL (≈ 0.551 µM)
O=[N+]([O-])c1ccccc1S(=O)(=O)Nc1ccc(S(=O)(=O)Nc2nccs2)cc1	3.8 µg/mL (≈ 8.63 µM)
COc1cc(Br)cc2cc(C(=O)Nc3cccc(C(F)(F)F)c3)c(=O)oc12	0.11 µg/mL (≈ 0.249 µM)
Cc1ccccc1NC(=O)c1c(NC(=O)CN2CCN(C)CC2)sc2c1CCC(C(C)(C)C)C2 (stereo unspecified)	40.2 µg/mL (≈ 83.3 µM)
COc1cccc(OCCN2CCN(c3ncnc4sc5c(c34)CCCC5)CC2)c1	29 µg/mL (≈ 68.2 µM)

SMILES	IC50
Cc1cc2ncn(CCCOc3ccccc3C)c2cc1C	4.63 µg/mL (≈ 15.7 µM)
Cc1ccc(C)c(-c2nn(-c3cc(N4CCN(C)CC4)ccc3[N+](=O)[O-])c(=O)c3ccccc23)c1	1.76 µg/mL (≈ 3.75 µM)
COc1ccc(C(=O)Oc2ccc(C(=O)OCc3ccccc3)cc2)cc1OC	1.39 µg/mL (≈ 3.54 µM)
CCn1cc(C(=O)O)c(=O)c2cc(F)c(N3CCN(C(=S)Nc4cc(C(F)(F)F)ccc4Cl)CC3)cc21	2.99 µg/mL (≈ 5.37 µM)
COc1ccc(CCNc2nc(N3CCCC3)nc(N3CCCC3)n2)cc1OC	5.35 µg/mL (≈ 13.4 µM)
Cc1cc(Cl)ccc1NC(=O)CCc1ccc(S(=O)(=O)NC(C)C)cc1	2.93 µg/mL (≈ 7.42 µM)
COC(=O)COc1ccc(NC(=O)COc2ccc(C)cc2C)cc1	< 0.1 µg/mL
CCN1CCN(c2ccc(NC(=O)CC34CC5CC(CC(C5)C3)C4)cc2Cl)CC1	49.4 µg/mL (≈ 119 µM)
CCOc1ccc(N2C(=O)CC(Nc3ccccc3O)C2=O)cc1 (stereo unspecified)	4.58 µg/mL (≈ 14 µM)
O=c1c(Cl)c(Cl)cnn1Cc1ccccc1Cl	9.65 µg/mL (≈ 33.3 µM)
O=C(Nc1ccc(C(F)(F)F)cc1)Nc1cccc(Cl)c1	0.2 µg/mL (≈ 0.636 µM)
O=C(CC12CC3CC(CC(C3)C1)C2)Nc1cccc(C(F)(F)F)c1	0.97 µg/mL (≈ 2.88 µM)
S=C(NCCCN1CCN(c2ccc(Cl)cc2)CC1)Nc1cccc(Cl)c1	3 µg/mL (≈ 7.09 µM)
O=C(CSc1ccc(F)cc1)Nc1ccc2c(c1)OCCO2	7.01 µg/mL (≈ 22 µM)
CC1CCc2nc(NC(=S)NCc3ccco3)sc2C1 (stereo unspecified)	3.09 µg/mL (≈ 10.1 µM)
Clc1ccc(OCCCCCn2ccnc2)c(Cl)c1	3.48 µg/mL (≈ 11.6 µM)
Cc1c(C(=O)NC(=S)Nc2ccc(Oc3ccc(Cl)cc3)cc2)cccc1[N+](=O)[O-]	1.49 µg/mL (≈ 3.37 µM)
COC(=O)CSc1nnc(NC(=O)c2ccc(Cl)cc2)s1	0.16 µg/mL (≈ 0.465 µM)
COc1ccc2[nH]cc(CCNC(=S)Nc3ccc(Nc4ccccc4)cc3)c2c1	2.9 µg/mL (≈ 6.96 µM)
Fc1ccc(CCNC(=S)Nc2ccc(Nc3ccccc3)cc2)cc1	> 50 µg/mL (inactive)
